Measured values reported in the kinase profiling compilation of Christmann-Franck et al. (2016).

Experiments:
Experiment in all cases: SelectScreen, TR FRET
Conditions in all cases: compound 5.0 µM
[1] = molecular target: IKBKB (human) (UniProt O14920)
[2] = molecular target: PDGFRA (human) (UniProt P16234)
[3] = system: KIT (human), P10721 [T670I]
[4] = molecular target: MATK (human) (UniProt P42679)
[5] = molecular target: GRK5 (human) (UniProt P34947)
[6] = molecular target: FGFR4 (human) (UniProt P22455)
[7] = molecular target: AURKA (human) (UniProt O14965)
[8] = molecular target: GRK6 (human) (UniProt P43250)
[9] = molecular target: YES1 (human) (UniProt P07947)
[10] = molecular target: CSNK1D (human) (UniProt P48730)
Chain of CSNK1D (human) (P48730 whole entry, looked up): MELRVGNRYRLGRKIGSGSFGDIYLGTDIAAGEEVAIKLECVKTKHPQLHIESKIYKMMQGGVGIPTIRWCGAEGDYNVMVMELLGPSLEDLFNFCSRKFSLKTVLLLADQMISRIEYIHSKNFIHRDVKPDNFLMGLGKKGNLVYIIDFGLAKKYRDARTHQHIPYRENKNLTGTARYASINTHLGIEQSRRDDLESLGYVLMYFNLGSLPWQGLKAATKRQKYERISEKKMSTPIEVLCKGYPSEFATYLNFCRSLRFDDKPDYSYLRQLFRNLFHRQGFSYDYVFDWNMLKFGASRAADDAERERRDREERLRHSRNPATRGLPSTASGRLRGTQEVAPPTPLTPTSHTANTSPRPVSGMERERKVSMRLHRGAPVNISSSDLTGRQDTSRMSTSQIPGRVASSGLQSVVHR

[11] = molecular target: BMX (human) (UniProt P51813)
[12] = molecular target: PRKG2 (human) (UniProt Q13237)
[13] = molecular target: STK4 (human) (UniProt Q13043)
[14] = molecular target: RPS6KA2 KD1 KD2 (human) (UniProt Q15349)
[15] = molecular target: ITK (human) (UniProt Q08881)
[16] = molecular target: CDK2 CCNA2 (human) (UniProt P24941+P20248)
[17] = molecular target: TSSK2 (human) (UniProt Q96PF2)
Chain of TSSK2 (human) (Q96PF2 whole entry, looked up): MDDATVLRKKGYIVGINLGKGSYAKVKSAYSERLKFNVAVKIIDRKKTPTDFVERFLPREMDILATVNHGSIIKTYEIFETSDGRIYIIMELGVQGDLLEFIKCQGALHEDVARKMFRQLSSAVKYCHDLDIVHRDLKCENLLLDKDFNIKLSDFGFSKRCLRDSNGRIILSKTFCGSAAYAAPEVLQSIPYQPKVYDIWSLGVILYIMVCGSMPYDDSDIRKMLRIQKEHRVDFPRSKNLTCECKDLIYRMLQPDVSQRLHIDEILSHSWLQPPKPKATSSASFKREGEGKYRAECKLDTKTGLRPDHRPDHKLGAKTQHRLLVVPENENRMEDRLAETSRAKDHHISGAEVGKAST

[18] = molecular target: FGFR2 (human) (UniProt P21802)
[19] = molecular target: MAPKAPK2 (human) (UniProt P49137)
Chain of MAPKAPK2 (human) (P49137 whole entry, looked up): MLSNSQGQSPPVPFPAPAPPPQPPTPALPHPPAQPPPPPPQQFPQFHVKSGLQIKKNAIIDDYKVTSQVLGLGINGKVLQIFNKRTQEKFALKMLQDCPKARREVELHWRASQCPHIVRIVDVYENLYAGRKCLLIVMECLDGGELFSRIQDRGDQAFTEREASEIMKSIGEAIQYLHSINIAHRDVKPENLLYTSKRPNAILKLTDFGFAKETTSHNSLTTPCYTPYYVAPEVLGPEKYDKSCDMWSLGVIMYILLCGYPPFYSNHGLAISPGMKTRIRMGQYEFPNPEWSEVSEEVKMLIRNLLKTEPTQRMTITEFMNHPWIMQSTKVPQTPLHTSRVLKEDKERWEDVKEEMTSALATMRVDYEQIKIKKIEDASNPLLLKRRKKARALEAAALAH

[20] = molecular target: PRKCI (human) (UniProt P41743)
Chain of PRKCI (human) (P41743 whole entry, looked up): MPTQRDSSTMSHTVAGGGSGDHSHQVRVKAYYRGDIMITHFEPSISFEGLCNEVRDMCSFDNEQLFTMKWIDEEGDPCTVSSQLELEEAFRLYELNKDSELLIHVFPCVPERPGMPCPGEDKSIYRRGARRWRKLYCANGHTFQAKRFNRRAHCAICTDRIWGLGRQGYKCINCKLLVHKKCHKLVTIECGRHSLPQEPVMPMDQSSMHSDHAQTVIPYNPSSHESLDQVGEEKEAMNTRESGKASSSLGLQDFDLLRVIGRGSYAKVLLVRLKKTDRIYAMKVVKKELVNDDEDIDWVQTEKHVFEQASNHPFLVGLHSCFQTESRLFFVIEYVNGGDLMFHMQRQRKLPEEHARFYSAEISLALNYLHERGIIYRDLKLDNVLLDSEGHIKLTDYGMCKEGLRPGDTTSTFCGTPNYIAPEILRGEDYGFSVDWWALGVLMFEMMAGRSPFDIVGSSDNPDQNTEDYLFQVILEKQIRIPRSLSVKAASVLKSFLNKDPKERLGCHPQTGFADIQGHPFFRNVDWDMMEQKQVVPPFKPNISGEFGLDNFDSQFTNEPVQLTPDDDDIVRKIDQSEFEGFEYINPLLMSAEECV

[21] = molecular target: JAK3 JH1 JH2 (human) (UniProt P52333)
[22] = molecular target: MAP3K9 (human) (UniProt P80192)
Chain of MAP3K9 (human) (P80192 whole entry, looked up): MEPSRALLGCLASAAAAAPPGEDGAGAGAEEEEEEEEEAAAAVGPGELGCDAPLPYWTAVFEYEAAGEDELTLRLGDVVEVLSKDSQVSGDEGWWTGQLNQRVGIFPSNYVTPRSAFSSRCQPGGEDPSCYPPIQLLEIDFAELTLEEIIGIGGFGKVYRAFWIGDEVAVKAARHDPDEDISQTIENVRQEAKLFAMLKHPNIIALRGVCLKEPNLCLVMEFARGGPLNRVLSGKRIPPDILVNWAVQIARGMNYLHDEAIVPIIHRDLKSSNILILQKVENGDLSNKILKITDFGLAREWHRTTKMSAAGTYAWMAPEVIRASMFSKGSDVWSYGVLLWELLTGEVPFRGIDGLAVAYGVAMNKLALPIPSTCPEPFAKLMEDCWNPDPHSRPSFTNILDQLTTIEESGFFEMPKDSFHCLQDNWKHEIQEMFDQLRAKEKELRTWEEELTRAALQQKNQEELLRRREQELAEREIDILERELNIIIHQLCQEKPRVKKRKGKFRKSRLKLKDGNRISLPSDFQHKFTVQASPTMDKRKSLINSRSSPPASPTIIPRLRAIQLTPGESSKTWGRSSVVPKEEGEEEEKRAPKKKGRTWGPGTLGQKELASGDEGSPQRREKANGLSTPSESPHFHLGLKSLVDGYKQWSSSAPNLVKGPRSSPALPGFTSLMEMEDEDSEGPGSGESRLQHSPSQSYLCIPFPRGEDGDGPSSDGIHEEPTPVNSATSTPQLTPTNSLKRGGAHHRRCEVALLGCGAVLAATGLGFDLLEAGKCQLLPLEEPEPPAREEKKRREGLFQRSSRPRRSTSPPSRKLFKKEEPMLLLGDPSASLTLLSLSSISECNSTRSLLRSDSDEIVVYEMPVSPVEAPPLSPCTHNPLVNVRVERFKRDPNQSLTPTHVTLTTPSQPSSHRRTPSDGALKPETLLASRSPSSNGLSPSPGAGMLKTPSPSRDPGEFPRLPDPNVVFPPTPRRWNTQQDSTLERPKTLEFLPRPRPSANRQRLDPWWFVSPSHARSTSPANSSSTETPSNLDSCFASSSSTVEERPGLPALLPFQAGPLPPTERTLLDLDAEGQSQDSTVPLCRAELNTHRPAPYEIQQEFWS

[23] = molecular target: GRK7 (human) (UniProt Q8WTQ7)
[24] = molecular target: PRKCQ (human) (UniProt Q04759)
Chain of PRKCQ (human) (Q04759 whole entry, looked up): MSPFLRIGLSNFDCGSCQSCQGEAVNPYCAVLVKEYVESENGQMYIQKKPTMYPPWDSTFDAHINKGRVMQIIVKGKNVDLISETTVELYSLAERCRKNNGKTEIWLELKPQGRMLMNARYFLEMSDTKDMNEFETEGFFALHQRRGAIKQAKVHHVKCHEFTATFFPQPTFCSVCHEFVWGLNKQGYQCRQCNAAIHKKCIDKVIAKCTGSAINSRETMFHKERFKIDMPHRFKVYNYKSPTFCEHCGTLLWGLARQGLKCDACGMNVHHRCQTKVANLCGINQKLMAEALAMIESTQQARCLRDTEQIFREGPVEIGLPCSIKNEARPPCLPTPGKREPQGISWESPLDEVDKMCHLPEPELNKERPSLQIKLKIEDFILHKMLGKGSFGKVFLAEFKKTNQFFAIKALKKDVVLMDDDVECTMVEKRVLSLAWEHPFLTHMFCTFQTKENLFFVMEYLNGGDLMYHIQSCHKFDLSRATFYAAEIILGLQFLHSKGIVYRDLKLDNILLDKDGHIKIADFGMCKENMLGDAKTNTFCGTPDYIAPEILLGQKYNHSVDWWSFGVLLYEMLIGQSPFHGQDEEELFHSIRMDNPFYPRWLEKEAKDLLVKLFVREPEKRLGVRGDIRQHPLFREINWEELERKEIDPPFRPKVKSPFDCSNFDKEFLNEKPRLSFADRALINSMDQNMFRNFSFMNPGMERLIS

[25] = molecular target: CSNK1A1 (human) (UniProt P48729)
[26] = molecular target: MAP4K5 (human) (UniProt Q9Y4K4)
Chain of MAP4K5 (human) (Q9Y4K4 whole entry, looked up): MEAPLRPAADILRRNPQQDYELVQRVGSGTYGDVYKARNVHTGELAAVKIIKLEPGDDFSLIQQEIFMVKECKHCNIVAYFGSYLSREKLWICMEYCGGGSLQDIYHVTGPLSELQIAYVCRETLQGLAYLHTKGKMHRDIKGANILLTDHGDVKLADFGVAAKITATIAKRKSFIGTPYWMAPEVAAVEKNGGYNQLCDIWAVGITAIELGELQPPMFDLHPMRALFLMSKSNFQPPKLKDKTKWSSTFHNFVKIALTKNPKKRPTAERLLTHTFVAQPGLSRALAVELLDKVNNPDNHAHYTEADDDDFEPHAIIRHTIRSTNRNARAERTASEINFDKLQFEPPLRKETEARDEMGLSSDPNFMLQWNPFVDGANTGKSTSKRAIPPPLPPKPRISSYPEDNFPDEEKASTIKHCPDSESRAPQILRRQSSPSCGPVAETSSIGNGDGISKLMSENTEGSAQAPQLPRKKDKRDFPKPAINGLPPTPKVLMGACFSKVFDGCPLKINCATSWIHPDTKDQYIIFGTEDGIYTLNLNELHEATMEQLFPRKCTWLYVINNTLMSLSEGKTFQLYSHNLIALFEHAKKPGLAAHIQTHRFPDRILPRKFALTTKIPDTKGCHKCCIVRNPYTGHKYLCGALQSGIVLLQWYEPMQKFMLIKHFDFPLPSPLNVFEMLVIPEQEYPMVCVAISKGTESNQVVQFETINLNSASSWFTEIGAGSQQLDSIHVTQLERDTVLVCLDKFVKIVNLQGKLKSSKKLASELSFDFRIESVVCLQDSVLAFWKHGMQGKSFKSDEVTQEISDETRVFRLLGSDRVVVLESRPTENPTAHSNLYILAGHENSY

[27] = molecular target: PRKCE (human) (UniProt Q02156)
[28] = system: LYN (human), P07948 [23-43 del]
[29] = system: PDGFRA (human), P16234 [D842V]
[30] = molecular target: PRKCZ (human) (UniProt Q05513)
Chain of PRKCZ (human) (Q05513 whole entry, looked up): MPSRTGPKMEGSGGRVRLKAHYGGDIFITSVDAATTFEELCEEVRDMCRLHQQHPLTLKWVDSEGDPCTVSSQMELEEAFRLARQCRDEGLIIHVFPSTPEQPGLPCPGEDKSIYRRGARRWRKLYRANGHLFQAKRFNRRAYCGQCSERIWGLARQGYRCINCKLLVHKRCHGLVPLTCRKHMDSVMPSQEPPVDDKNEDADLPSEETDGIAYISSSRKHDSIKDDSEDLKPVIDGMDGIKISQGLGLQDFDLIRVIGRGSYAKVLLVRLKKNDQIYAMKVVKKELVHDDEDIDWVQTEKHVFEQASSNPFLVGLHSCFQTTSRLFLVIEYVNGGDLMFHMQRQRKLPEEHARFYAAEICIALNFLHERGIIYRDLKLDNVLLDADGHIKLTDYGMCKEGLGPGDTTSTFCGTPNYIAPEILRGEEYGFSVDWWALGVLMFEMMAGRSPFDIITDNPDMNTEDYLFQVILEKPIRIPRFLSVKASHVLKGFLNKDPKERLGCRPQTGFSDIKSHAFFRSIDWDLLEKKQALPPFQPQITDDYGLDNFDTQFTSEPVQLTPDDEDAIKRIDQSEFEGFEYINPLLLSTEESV

[31] = molecular target: PTK6 (human) (UniProt Q13882)
[32] = molecular target: CAMK1D (human) (UniProt Q8IU85)
[33] = molecular target: MAP2K6 (human) (UniProt P52564)
[34] = molecular target: SGK1 (human) (UniProt O00141)
[35] = molecular target: KDR (human) (UniProt P35968)
[36] = molecular target: TSSK1B (human) (UniProt Q9BXA7)
[37] = molecular target: CAMK2D (human) (UniProt Q13557)
[38] = molecular target: GSK3B (human) (UniProt P49841)
[39] = molecular target: PRKD3 (human) (UniProt O94806)
[40] = molecular target: CSK (human) (UniProt P41240)

inhibition [1]: -2% | inhibition [2]: 5% | inhibition [3]: 13% | inhibition [4]: 0% | inhibition [5]: 1% | inhibition [6]: 5% | inhibition [7]: 34% | inhibition [8]: 4% | inhibition [9]: 12% | inhibition [10]: 4% | inhibition [11]: 3% | inhibition [12]: 10% | inhibition [13]: 14% | inhibition [14]: 4% | inhibition [15]: 3% | inhibition [16]: 2% | inhibition [17]: -6% | inhibition [18]: 2% | inhibition [19]: -4% | inhibition [20]: 9% | inhibition [21]: 7% | inhibition [22]: 2% | inhibition [23]: 0% | inhibition [24]: 5% | inhibition [25]: -1% | inhibition [26]: 10% | inhibition [27]: 2% | inhibition [28]: 3% | inhibition [29]: 1% | inhibition [30]: 2% | inhibition [31]: -10% | inhibition [32]: 12% | inhibition [33]: 6% | inhibition [34]: 25% | inhibition [35]: 3% | inhibition [36]: -4% | inhibition [37]: 1% | inhibition [38]: 7% | inhibition [39]: 8% | inhibition [40]: 5%
SMILES: Nc1cc(C(F)(F)F)c(-c2cc(N3CCOCC3)nc(N3CCOCC3)n2)cn1
